Key:
[1] = Histological evaluation of liver (H&E); assay type: in vivo, BALB/c mice; settings: 10 mg kg^−1 i.p., five consecutive days
Protocol: Liver tissue for histological assessment was fixed with formaldehyde and then paraffin-embedded. Haematoxylin and eosin (H&E) was used to stain tissue slices.
Animals. All experiments were carried out with male Balb/c mice according to the regulation of the Ethics Committee for the Care and Use of Laboratory Animals at the Medical University Vienna (BMWF-2022-0.770.291), the guidelines from the Austrian Animal Science Association and the Federation of European Laboratory Animal Science Associations (FELASA). The animals were kept in a pathogen-free conditions, controlled environment with 12 h light–dark cycle with ad libitum access to food and water. Every procedure was done in a laminar airflow […]
Treatment. CT-26 cells ([…] in 50 μL serum-free medium) were injected subcutaneously (s.c.) into the right flank of ten– to eleven-week-old male Balb/c mice. Three days after cell injection, all compounds (dissolved in 10% DMSO in water) were administered […]
1b/2b. Regarding anticancer activity experiments, mice were treated on 5 consecutive days over 2 weeks. Four hours after the last treatment 1a-treated mice were sacrificed and analysed for ruthenium levels in tissue via ICP-MS measurements. In case of the proteomic profiling […]
in water for 5 consecutive days. On the last day, 2 h after the last treatment, mice were euthanized, and blood was collected in an EDTA tube via heart punctation. […]

[2] = Reactivity by NMR with 9-ethylguanine and methionine or cysteine; assay type: physicochemical; settings: 1 mM, equimolar nucleophiles, D2O/20% DMSO, up to 24 h
Protocol: Nevertheless, they are activated by hydrolysis of the most labile M–O bond (Fig. 2C).[48] Further hydrolysis releases the NQ ligand, because the free hemiaminal-containing NQ is unstable and the presence of biological nucleophiles accelerated NQ release.[48] […] The samples were analysed on a 500 MHz NMR spectrometer after 0 h, 1.5 h and 24 h. […] The aromatic proton of 9-ethylguanine was consistently found at 7.6 ppm.

[3] = target: T1, ATP-dependent RNA helicase DDX3X (Homo sapiens, UniProt O00571); assay: Peptide centric local stability assay in SW480 whole cell lysate; assay type: binding; settings: 1 μM
T1 construct: endogenous in cells; host or cells: SW480 whole cell lysate
Excerpt: The method relies on a limited-proteolysis strategy, where ligand-binding on target proteins is expected to increase the stability of the proteins against proteolytic digestion. This specifically enables the identification of target proteins of small molecules. […] Being a ruthenium(arene) derivative, plecstatin-1 was used to assess potential non-specific interactors of the ruthenium(cymene) fragment. […] However, among the selective interaction partners, we found specific peptides of ATP-dependent RNA helicase DDX3X, tubulin alpha-1A (TUBA1A) and albumin (ALB). Several peptides of TUBA1A and ALB were also found to be stabilized by plecstatin-1 indicating low specificity.
Peptide Local Stability Assay
SW480 cancer cells were cultivated in complete medium as above in two T75 adherent flasks.
The protein extraction was performed on ice. The flasks were washed twice with PBS (1×, 5 mL) and the wash solution was completely removed. Then, PBS (1×, 2mL, containing 1% PPC) was added in each T75 flak. The cells were scraped off and the cell suspension was transferred to 15 mL falcon tubes. […]
The clear supernatant was pooled in a 5 mL Eppendorf tube and kept on ice. The protein concentration was determined using a BCA assay as described above and adjusted to 1 µg/µL using PBS (1×, containing 1% PPC). […]

T1 sequence (O00571 whole entry): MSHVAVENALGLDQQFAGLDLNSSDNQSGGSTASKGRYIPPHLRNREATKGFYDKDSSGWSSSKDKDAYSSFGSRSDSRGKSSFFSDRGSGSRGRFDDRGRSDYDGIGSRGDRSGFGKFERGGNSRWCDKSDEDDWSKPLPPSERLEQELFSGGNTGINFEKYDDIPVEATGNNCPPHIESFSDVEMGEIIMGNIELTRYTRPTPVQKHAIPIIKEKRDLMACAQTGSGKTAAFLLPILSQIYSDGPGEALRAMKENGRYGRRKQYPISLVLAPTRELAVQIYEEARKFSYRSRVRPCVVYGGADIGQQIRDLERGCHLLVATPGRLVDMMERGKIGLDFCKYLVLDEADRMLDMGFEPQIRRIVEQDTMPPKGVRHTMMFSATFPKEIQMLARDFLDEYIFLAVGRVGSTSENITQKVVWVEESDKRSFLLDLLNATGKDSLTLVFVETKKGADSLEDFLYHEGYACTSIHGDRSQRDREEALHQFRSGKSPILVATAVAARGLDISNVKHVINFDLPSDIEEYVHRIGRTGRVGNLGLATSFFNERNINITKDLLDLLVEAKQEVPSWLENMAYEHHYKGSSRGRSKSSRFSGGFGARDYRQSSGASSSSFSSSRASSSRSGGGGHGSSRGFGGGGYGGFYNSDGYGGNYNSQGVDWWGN

Q: Which results are given for `CCC1=C2[O][Ru][O]C2(n2cccn2)c2ccccc2C1=O.Cc1ccc(C(C)C)cc1` (stereo not drawn) [Compound 1a, [(3-ethyl-4-oxo-(pyrazolyl)-dihydronaphthalene)(cymene)ruthenium(II)]]?
A: liver histology (H&E) [1]: largely healthy physiology; stability by NMR [2]: remained remarkably stable; direct interaction with DDX3X [3]: most probable direct binding partner

— article PMC12320299 (Chemical Science, 2025)
